Experimental data: ChEMBL document CHEMBL5726221, “4,6-substituted-pyrazolo[1,5-a]pyrazines as janus kinase inhibitors” (2019)

Legend:
[1] = target: T1, Tyrosine-protein kinase JAK3 (Homo sapiens, UniProt P52333); assay: JAK3 Inhibition Assay: Compounds of Formula I were screened for their ability to inhibit JAK3 using the general enzyme inhibition assay method, in which the assay mixture contained 1 mM ATP, 10 μM Omnia® Y7 peptide (Catalog # IVGN KNZ3071C, Invitrogen Corporation, Carlsbad, Calif.) and 2 nM JAK3 in a total volume of 25 μL. JAK3 was purchased from Invitrogen Corporation, Carlsbad, Calif. (catalog # IVGN PV4080).
T1 sequence (P52333 whole entry): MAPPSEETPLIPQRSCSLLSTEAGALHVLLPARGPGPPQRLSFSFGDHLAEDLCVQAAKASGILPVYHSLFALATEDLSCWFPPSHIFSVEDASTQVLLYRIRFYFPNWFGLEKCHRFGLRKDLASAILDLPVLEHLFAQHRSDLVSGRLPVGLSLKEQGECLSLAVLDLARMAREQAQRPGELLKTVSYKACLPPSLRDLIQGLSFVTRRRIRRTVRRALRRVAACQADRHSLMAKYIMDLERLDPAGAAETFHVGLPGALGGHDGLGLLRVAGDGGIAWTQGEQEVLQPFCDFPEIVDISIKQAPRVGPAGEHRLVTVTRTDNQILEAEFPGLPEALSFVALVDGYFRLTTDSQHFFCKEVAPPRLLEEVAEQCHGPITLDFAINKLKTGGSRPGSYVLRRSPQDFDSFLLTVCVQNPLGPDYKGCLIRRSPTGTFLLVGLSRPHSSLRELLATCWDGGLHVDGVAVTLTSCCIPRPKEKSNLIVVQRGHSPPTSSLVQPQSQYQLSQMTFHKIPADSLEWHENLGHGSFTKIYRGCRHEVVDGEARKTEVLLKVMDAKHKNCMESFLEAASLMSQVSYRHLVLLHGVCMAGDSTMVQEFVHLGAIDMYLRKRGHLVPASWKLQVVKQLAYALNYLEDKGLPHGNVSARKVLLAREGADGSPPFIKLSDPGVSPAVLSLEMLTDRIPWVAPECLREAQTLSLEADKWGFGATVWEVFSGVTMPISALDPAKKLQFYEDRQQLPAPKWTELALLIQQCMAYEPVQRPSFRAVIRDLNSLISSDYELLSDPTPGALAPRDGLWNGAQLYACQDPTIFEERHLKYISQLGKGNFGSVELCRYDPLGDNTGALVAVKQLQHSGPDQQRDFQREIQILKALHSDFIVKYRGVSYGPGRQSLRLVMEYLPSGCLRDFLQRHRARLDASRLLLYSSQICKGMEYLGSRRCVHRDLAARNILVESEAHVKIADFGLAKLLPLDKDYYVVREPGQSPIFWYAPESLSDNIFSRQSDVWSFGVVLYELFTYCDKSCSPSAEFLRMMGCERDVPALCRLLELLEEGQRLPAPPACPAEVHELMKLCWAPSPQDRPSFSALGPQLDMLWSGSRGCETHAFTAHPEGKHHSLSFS

[2] = target: Non-receptor tyrosine-protein kinase TYK2 (Homo sapiens, UniProt P29597); assay: Tyk2 Inhibition Assay: Compounds of Formula I were screened for their ability to inhibit Tyk2 using the general enzyme inhibition assay method, in which the assay mixture contained 1 mM ATP, 8 μM Omnia Y12 peptide (Catalog # IVGN KPZ3121C; Invitrogen Corporation, Carlsbad, Calif.) and 1 nM Tyk2 in a total volume of 25 μL. Human Tyk2 kinase domain, comprising amino acids 886 to 1187 with 10 additional histidine residues (histidine tag) on the carboxy terminus, was expressed and purified from bacculovirus in-house at Array BioPharma Inc. (Boulder, Colo.). The histidine tag was cleaved after purification using standard conditions.
Sequence of Non-receptor tyrosine-protein kinase TYK2 (P29597 whole entry, the tested form may be a part): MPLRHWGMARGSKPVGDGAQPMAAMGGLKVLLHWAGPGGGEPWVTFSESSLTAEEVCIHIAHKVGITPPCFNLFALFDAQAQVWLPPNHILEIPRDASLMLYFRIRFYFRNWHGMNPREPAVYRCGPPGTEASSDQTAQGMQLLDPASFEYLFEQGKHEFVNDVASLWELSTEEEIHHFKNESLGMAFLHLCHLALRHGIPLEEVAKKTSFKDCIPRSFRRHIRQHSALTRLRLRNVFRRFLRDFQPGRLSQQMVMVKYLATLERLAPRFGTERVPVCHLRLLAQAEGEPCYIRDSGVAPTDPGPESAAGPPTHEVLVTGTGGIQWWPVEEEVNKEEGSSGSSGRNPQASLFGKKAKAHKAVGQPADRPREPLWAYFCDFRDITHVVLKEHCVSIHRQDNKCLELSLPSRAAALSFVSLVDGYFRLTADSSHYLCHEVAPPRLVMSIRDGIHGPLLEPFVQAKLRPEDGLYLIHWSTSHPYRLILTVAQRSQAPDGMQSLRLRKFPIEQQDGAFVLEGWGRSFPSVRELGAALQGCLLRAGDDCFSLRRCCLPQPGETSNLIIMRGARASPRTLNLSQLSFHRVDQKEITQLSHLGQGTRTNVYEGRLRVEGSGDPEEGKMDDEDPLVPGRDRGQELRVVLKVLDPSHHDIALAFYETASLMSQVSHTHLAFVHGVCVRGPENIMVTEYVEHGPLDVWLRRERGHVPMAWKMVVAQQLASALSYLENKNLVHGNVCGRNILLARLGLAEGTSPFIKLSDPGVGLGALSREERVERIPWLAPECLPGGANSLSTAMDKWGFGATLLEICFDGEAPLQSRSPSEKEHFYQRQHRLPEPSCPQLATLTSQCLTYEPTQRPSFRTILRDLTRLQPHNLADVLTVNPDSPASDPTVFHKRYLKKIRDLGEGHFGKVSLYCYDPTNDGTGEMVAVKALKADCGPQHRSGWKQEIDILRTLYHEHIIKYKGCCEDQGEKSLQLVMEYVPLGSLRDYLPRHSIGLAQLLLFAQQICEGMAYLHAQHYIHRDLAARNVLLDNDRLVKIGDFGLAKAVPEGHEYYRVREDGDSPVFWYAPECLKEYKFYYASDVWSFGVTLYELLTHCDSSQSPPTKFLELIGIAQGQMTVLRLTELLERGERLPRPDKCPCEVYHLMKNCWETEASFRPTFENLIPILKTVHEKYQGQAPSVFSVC

| IC50 [1] | IC50 [2] | Compound |
| --- | --- | --- |
| in the range around 5.5 µM | – | CCC(CC)n1cc(-c2nc(-c3cnn([C@H]4C[C@@](O)(CO)C4)c3)cn3nccc23)cn1 |
| in the range around 5.5 µM | in the range around 0.055 µM | CCC(CC)n1cc(-c2nc(-c3cnn([C@H]4C[C@@H](O)[C@@H](O)C4)c3)cn3nccc23)cn1 |
| in the range around 5.5 µM | – | CCC(CC)n1cc(-c2nc(-c3cnn(CC4CC(CO)C4)c3)cn3nccc23)cn1 (centres undefined) |
